Consider 8 compounds from patent US20240381872A1, “SUBSTITUTED 2,3-DIHYDRO[1,3]THIAZOLO[4,5-B]PYRIDINES, SALTS THEREOF AND THEIR USE AS HERBICIDALLY ACTIVE SUBSTANCES” (BAYER AKTIENGESELLSCHAFT, priority 2021, published 2024).

Holding throughout (type): in vivo
For assay [1], the system named is Polygonum convolvulus (POLCO). Briefly: Herbicidal post-emergence action, section E (Table E7). The following applies: visual assessment ca. 3 weeks after spraying. The procedure, abridged: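 Post-emergence greenhouse spray onto single-leaf-stage plants raised in sandy loam, using WP or EC formulations with 0.5% additive at 600 l water/ha. Effect is the visual percentage damage relative to untreated controls after about 3 weeks.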

Assay [2] concerns Digitaria sanguinalis (DIGSA). Briefly: Herbicidal pre-emergence action, section C (Table C12). The following applies: visual grading after ca. 3 weeks. Summed up: (§1)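 Pre-emergence, sandy loam. WP/EC formulations applied to covering soil surface, aqueous, + 0.5% additive, 600 l water/ha. Greenhouse, optimum growth. Visual % damage vs untreated, ca. 3 wk.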
Assay [3] relates to Echinochloa crus-galli (ECHCG). Nature of the assay: Herbicidal pre-emergence action, section C (Table C3). The following applies: visual grading after ca. 3 weeks vs untreated controls; for pest or weed control at 80 g/ha / pest or weed control at 320 g/ha: Echinochloa crus-galli, pre-emergence, 504 h, read-out: pre-emergence activity against ECHCG in %; for pest or weed control at 80 g/ha / pre-emergence activity against ECHCG in %: application rate 80 g/ha; for pest or weed control at 320 g/ha: application rate 320 g/ha. Summed up: as §1

The test system of assay [4] is Amaranthus retroflexus (AMARE). Nature of the assay: Herbicidal post-emergence action, section E (Table E3). The following applies: assessed visually after ca. 3 weeks; for pest or weed control at 320 g/ha / post-emergence activity against AMARE in %: application rate 320 g/ha. An excerpt:
Seeds of mono- and dicotyledonous weed plants and crop plants were sown, in plastic or organic planting pots, in sandy loam, covered with soil and grown in a greenhouse under controlled growth conditions. 2 to 3 weeks after sowing, the test plants were sprayed in the single-leaf stage. The compounds according to the invention, formulated in form of wettable powders (WP) or as emulsifiable concentrates (EC), were sprayed onto the green plant parts as aqueous suspension or emulsion, with the addition of 0.5% of an additive, at an application rate of 600 l of water/ha (converted). The test plants were placed in the greenhouse for ca. 3 weeks under optimum growth conditions, and then the effect of the preparations was assessed visually in comparison with untreated controls (herbicidal effect in percent (%): 100% effect=plants have died off, 0% effect=as control plants).

Assay [5] deals with Digitaria sanguinalis (DIGSA). Nature of the assay: Herbicidal pre-emergence action, section A (Table A12). The following applies: for pest or weed control at 320 g/ha / pre-emergence activity against DIGSA in %: application rate 320 g/ha. The procedure, abridged: (§2)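 Read-out is visual herbicidal effect in percent (100% = plants died, 0% = as control), graded ca. 3 weeks after treatment. Test compounds as WP or EC were applied to covering soil over sown seeds with 0.5% additive, 600 l water per hectare; greenhouse growth.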

Assay [6] concerns Alopecurus myosuroides (ALOMY). Briefly: Herbicidal pre-emergence action, section A (Table A2). Conditions: visual grading after ca. 3 weeks vs untreated controls; for pest or weed control at 1280 g/ha: application rate 1280 g/ha. The procedure, abridged:
as §2

The subject of assay [7] is Matricaria inodora (MATIN). Nature of the assay: Herbicidal pre-emergence action, section A (Table A6). Conditions: visual grading after ca. 3 weeks vs untreated controls. The procedure, abridged:
as §2

Assay [8] deals with Setaria viridis (SETVI). Nature of the assay: Herbicidal post-emergence action, section B (Table B8). Conditions: application rate 1280 g/ha, visual rating about 3 weeks after treatment vs untreated controls; for pest or weed control at 1280 g/ha: Setaria viridis, post-emergence, 504 h, read-out: post-emergence activity against SETVI in %. The procedure, abridged:
(§3)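 Visual percent control about 3 weeks post-spray, relative to untreated plants. Application was to foliage at the one-leaf stage (2 to 3 weeks after sowing in sandy loam), using WP or EC formulations in water with 0.5% additive at 600 liters per hectare.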

In assay [9] the test system is Setaria viridis (SETVI). Briefly: Herbicidal pre-emergence action, section A (Table A8). The following applies: for pest or weed control at 320 g/ha / pre-emergence activity against SETVI in %: application rate 320 g/ha. The procedure, abridged: as §2
The next assay has as its system Stellaria media (STEME). Briefly: Herbicidal post-emergence action, section B (Table B9). The following applies: visual rating about 3 weeks after treatment vs untreated controls; for pest or weed control at 1280 g/ha: Stellaria media, post-emergence, 504 h, application rate 1280 g/ha, read-out: post-emergence activity against STEME in %; for post-emergence activity against STEME in %: application rate 320 g/ha. Summed up: as §3

A further assay concerns Poa annua (POAAN). Nature of the assay: Herbicidal pre-emergence action, section A (Table A7). Conditions: visual grading after ca. 3 weeks vs untreated controls; for pest or weed control at 320 g/ha: Poa annua, pre-emergence, 504 h, read-out: pre-emergence activity against POAAN in %. Summed up:
as §2

In assay [10] the test system is Abutilon theophrasti (ABUTH). Nature of the assay: Herbicidal pre-emergence action, section A (Table A1). Conditions: visual grading after ca. 3 weeks vs untreated controls; for pest or weed control at 1280 g/ha: application rate 1280 g/ha. Summed up:
as §2

Where [11] appears, read: Fallopia convolvulus, 504 h, application rate 80 g/ha, read-out: post-emergence activity against POLCO in %.
Setting [12] is: Digitaria sanguinalis, pre-emergence, 504 h, application rate 80 g/ha, read-out: pre-emergence activity against DIGSA in %.
The mark [13] stands for this setting: Amaranthus retroflexus, post-emergence, 504 h, read-out: post-emergence activity against AMARE in %.
Setting [14] is: Digitaria sanguinalis, 504 h, read-out: pre-emergence activity against DIGSA in %.
The mark [15] stands for this setting: Setaria viridis, 504 h, read-out: pre-emergence activity against SETVI in %.
Setting [16] is: Alopecurus myosuroides, pre-emergence, 504 h, read-out: pre-emergence activity against ALOMY in %.
The mark [17] stands for this setting: Tripleurospermum inodorum, pre-emergence, 504 h, application rate 1280 g/ha, read-out: pre-emergence activity against MATIN in %.
Setting [18] is: Abutilon theophrasti, pre-emergence, 504 h, read-out: pre-emergence activity against ABUTH in %.

As for `Cc1cc2c(nc1-c1ccccc1Cl)NCS2` [Example I-049, 5-(2-chlorophenyl)-6-methyl-2,3-dihydro[1,3]thiazolo[4,5-b]pyridine], the pest or weed control at 80 g/ha in assay [1] (setting [11]) came out at 80%; in [2] (setting [12]), 90%; in assay [3] it was 100%. Further, in [4] (setting [13]), the pest or weed control at 320 g/ha came to 90%.
On to `CCOCCS(=O)(=O)N1C[S+]([O-])c2cc(C)c(-c3ccccc3F)nc21` (centres unmarked) [Example I-127], for which the pest or weed control at 320 g/ha in [5] (setting [14]) amounted to 100%; in [6] (Alopecurus myosuroides, pre-emergence, 504 h, application rate 320 g/ha, read-out: pre-emergence activity against ALOMY in %) it was 100%; in assay [7] (Tripleurospermum inodorum, pre-emergence, 504 h, application rate 320 g/ha, read-out: pre-emergence activity against MATIN in %) it was 100%; with Setaria viridis (SETVI) [9] (setting [15]), 100%; in assay [4] (setting [13]), 90%. The pest or weed control at 80 g/ha was determined as 90% in [1] (setting [11]) and 100% in assay [2] (setting [12]). For the same compound, the pest or weed control at 1280 g/ha with Setaria viridis (SETVI) [8] and in the assay on Stellaria media (STEME) was 90% each time.
For `COCC1(C(=O)N2CSc3cc(C)c(-c4ccccc4F)nc32)CC(Cl)=NO1` (centres unmarked) [Example I-128], the “pre-emergence activity against DIGSA in %” value in assay [5] and in [2] (application rate 80 g/ha) was 100% in each case. In addition, in assay [1] (application rate 80 g/ha), the “post-emergence activity against POLCO in %” value is 90%. Also, the “pre-emergence activity against ALOMY in %” value in assay [6] (application rate 320 g/ha) is 100%. Also, in assay [7] (application rate 320 g/ha), the “pre-emergence activity against MATIN in %” value was found to be 100%. Besides, the “post-emergence activity against SETVI in %” value in the assay with Setaria viridis (SETVI) [8] amounted to 90%. Also, the “pre-emergence activity against SETVI in %” value in the assay with Setaria viridis (SETVI) [9] is listed as 100%. In addition, the “pre-emergence activity against ECHCG in %” value in assay [3] came to 100%. Further, in the assay on Poa annua (POAAN) (application rate 320 g/ha), the “pre-emergence activity against POAAN in %” value amounted to 100%. Moreover, in the assay with Stellaria media (STEME), the “post-emergence activity against STEME in %” value was found to be 90%. Moreover, the “post-emergence activity against AMARE in %” value in assay [4] is 90%. For the same compound, in [10] (application rate 320 g/ha), the “pre-emergence activity against ABUTH in %” value came out at 90%.
Take `Fc1ccccc1-c1nc2c(cc1Br)SCN2` [Example I-001, 6-bromo-5-(2-fluorophenyl)-2,3-dihydro[1,3]thiazolo[4,5-b]pyridine]: the pest or weed control at 320 g/ha in assay [1] (Fallopia convolvulus, 504 h, application rate 320 g/ha, read-out: post-emergence activity against POLCO in %) stood at 90%; in assay [4] (setting [13]), 80%. The pest or weed control at 80 g/ha in assay [3] stood at 100%.
For the compound `Cc1cc2c(nc1-c1ccccc1F)NCS2` [Example I-007, 5-(2-fluorophenyl)-6-methyl-2,3-dihydro[1,3]thiazolo[4,5-b]pyridine], the pest or weed control at 80 g/ha in [1] (setting [11]) was determined as 90%; in [2] (setting [12]), 100%; in assay [3] it was 100%; in assay [4] (Amaranthus retroflexus, post-emergence, 504 h, application rate 80 g/ha, read-out: post-emergence activity against AMARE in %) it was 80%. The pest or weed control at 1280 g/ha in assay [6] (setting [16]) is 100%; in [7] (setting [17]) it was 90%; in the assay on Setaria viridis (SETVI) [8] it was 90%; in the assay with Stellaria media (STEME), 90%; in assay [10] (setting [18]), 90%. Further, the pest or weed control at 320 g/ha with Setaria viridis (SETVI) [9] (setting [15]) and with Poa annua (POAAN) (application rate 320 g/ha) was 100% each time.
Take `CC(=O)N1CSc2cc(Br)c(-c3ccccc3Cl)nc21` [Example I-055, 1-[6-bromo-5-(2-chlorophenyl)[1,3]thiazolo[4,5-b]pyridin-3(2H)-yl]ethanone]: the pest or weed control at 320 g/ha in assay [5] (setting [14]) amounted to 100%; in [3], 100%; in the assay with Poa annua (POAAN) (application rate 320 g/ha), 100%; in [4] (setting [13]) it was 80%. For the same compound, the pest or weed control at 1280 g/ha in [6] (setting [16]) came to 90%; in assay [7] (setting [17]), 90%; in the assay with Setaria viridis (SETVI) [8], 90%; with Setaria viridis (SETVI) [9] (Setaria viridis, 504 h, application rate 1280 g/ha, read-out: pre-emergence activity against SETVI in %), 100%; in the assay with Stellaria media (STEME), 90%; in assay [10] (setting [18]), 90%. For the same compound, the pest or weed control at 80 g/ha in assay [2] (setting [12]) is 90%.
With `CC1(C(=O)N2CSc3cc(Br)c(-c4ccccc4Cl)nc32)CC(Cl)=NO1` (centres unmarked) [Example I-141, [6-bromo-5-(2-chlorophenyl)[1,3]thiazolo[4,5-b]pyridin-3(2H)-yl](3-chloro-5-methyl-4,5-dihydro-1,2-oxazol-5-yl)methanone], the pest or weed control at 1280 g/ha in assay [5] (Digitaria sanguinalis, 504 h, application rate 1280 g/ha, read-out: pre-emergence activity against DIGSA in %) was found to be 100%; in assay [6] (setting [16]), 90%; in [7] (setting [17]) it was 90%; in the assay with Stellaria media (STEME), 90%. Further, the pest or weed control at 320 g/ha was found to be 90% in assay [2] (Digitaria sanguinalis, pre-emergence, 504 h, application rate 320 g/ha, read-out: pre-emergence activity against DIGSA in %); 100% in the assay with Setaria viridis (SETVI) [9] (setting [15]); 100% in [3]; 100% with Poa annua (POAAN) (application rate 320 g/ha); 80% in [4] (setting [13]); 100% in assay [10] (Abutilon theophrasti, pre-emergence, 504 h, application rate 320 g/ha, read-out: pre-emergence activity against ABUTH in %).
On to `Cc1cc2c(nc1-c1ccccc1F)N(C(=O)C1(C)CC(Cl)=NO1)CS2` (centres unmarked) [Example I-083], for which the “pre-emergence activity against DIGSA in %” value in assay [5] and in [2] (application rate 320 g/ha) was 100% in each case. Also, in assay [1] (application rate 320 g/ha), the “post-emergence activity against POLCO in %” value amounted to 90%. Moreover, the “pre-emergence activity against ALOMY in %” value in assay [6] (application rate 320 g/ha) came to 100%. The “pre-emergence activity against MATIN in %” value in assay [7] (application rate 1280 g/ha) is 90%. Also, the “post-emergence activity against SETVI in %” value with Setaria viridis (SETVI) [8] was determined as 90%. Also, the “pre-emergence activity against SETVI in %” value in the assay on Setaria viridis (SETVI) [9] is reported as 100%. In addition, in assay [3], the “pre-emergence activity against ECHCG in %” value was 100%. Moreover, the “pre-emergence activity against POAAN in %” value in the assay with Poa annua (POAAN) (application rate 1280 g/ha) was determined as 100%. In addition, the “post-emergence activity against STEME in %” value in the assay on Stellaria media (STEME) is 90%. In addition, the “post-emergence activity against AMARE in %” value in [4] is recorded as 80%.
